Laboratory results: US9663526B2, “Aminopyrimidinyl compounds” (Pfizer Inc., priority 2014, dated 2017)
Read-outs that look alike come from different tables or passages of the source.

Experiments:
[1] = test system: interferon alpha signalling (TYK2 and JAK1), STAT3 phosphorylation; assay: Human whole blood INFα induced STAT3 phosphorylation assay; assay type: cell-based; details: compound 60 minutes at 37° C., IFNα 5000 U/ml for 15 minutes, pSTAT3 in lymphocyte population by flow cytometry, read-out: HWB IFN alpha IC50;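 further: flow cytometry with anti-pSTAT3 staining, signal as percent-positive × mean fluorescence, baseline from unstimulated wells, 11-point dilution series, IC50 as inhibition of pSTAT3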
[2] = target: recombinant human kinase domain of JAK3 (Homo sapiens (Human), UniProt P52333); assay: JAK Caliper enzyme assay at 1 mM ATP (JAK3); assay type: biochemical;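 further: microfluidic mobility-shift readout of synthetic peptide phosphorylation, percent product converted from peak heights, normalized to DMSO-only wells as uninhibited baseline, room temperature incubation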
recombinant human kinase domain of JAK3, sequence (P52333 822-1111): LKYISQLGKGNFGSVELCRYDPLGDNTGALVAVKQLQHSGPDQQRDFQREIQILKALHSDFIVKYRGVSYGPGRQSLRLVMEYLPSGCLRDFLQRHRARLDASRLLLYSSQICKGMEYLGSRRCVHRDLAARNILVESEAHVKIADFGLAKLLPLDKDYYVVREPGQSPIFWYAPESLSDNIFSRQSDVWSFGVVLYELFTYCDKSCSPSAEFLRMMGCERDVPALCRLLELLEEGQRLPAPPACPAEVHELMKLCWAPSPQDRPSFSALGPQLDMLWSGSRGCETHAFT

[3] = target: recombinant human kinase domain of JAK1 (Homo sapiens (Human), UniProt P23458); assay: JAK Caliper enzyme assay at 1 mM ATP (JAK1); assay type: biochemical;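 further: microfluidic mobility-shift readout of synthetic fluorescent peptide phosphorylation, percent product converted from peak height, inhibition relative to DMSO-only wells as uninhibited baseline, room temperature incubation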
recombinant human kinase domain of JAK1, sequence (P23458 875-1153): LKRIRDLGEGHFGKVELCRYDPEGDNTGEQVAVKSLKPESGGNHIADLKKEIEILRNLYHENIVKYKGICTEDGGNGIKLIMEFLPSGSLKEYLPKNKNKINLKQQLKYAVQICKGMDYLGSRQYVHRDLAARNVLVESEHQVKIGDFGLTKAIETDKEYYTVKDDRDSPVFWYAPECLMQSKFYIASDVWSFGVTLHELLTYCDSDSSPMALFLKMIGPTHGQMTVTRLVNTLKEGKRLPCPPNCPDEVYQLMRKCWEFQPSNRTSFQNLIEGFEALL

[4] = target: recombinant human kinase domain of TYK2 (Homo sapiens (Human), UniProt P29597); assay: JAK Caliper enzyme assay at 1 mM ATP (TYK2); assay type: biochemical; details: 1 mM ATP; read-out: IC50 (nM) TYK2;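 further: microfluidic mobility-shift readout of synthetic peptide phosphorylation by TYK2, tuned to 20–30% conversion at room temperature, reaction stopped with EDTA, DMSO-only wells as uninhibited baseline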
recombinant human kinase domain of TYK2, sequence (P29597 897-1176): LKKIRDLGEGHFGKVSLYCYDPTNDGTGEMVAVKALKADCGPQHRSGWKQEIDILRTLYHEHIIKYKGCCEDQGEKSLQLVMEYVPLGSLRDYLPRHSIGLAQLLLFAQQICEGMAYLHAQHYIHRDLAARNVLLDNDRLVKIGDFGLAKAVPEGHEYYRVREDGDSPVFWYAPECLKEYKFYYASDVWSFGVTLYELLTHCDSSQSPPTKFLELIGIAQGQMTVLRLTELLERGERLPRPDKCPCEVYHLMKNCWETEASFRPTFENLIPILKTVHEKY

[5] = target: recombinant human kinase domain of JAK2 (Homo sapiens (Human), UniProt O60674); assay: JAK Caliper enzyme assay at 1 mM ATP (JAK2); assay type: biochemical;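 further: microfluidic mobility-shift read-out of fluorescent synthetic peptide phosphorylation, percent product converted from peak heights, room temperature, DMSO-only wells as uninhibited baseline, inhibition curve fit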
recombinant human kinase domain of JAK2, sequence (O60674 849-1124): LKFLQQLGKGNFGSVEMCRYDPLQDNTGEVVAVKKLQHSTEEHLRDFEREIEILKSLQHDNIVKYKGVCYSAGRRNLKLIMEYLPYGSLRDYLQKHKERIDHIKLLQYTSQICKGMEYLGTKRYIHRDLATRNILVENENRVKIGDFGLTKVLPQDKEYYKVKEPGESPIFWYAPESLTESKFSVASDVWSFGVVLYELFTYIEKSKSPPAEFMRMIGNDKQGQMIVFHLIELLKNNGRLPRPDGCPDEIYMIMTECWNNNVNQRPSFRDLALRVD

[6] = 1 mM ATP, read-out: IC50 (nM) JAK3
[7] = 1 mM ATP, read-out: IC50 (nM) JAK1

| SMILES | IC50 [1] [nM] | IC50 [2, 6] [nM] | IC50 [3, 7] [nM] | IC50 [4] [nM] | IC50 [5] [nM] | IC50 [3] [nM] | IC50 [2] [nM] |
| --- | --- | --- | --- | --- | --- | --- | --- |
| Cc1cc(Nc2nccc(N3C[C@H]4CC[C@@H](C3)N4C(=O)C3CC3)n2)cnc1C(N)=O [Example 15, 5-({4-[(1R,5S)-8-(cyclopropylcarbonyl)-3,8-diazabicyclo[3.2.1]oct-3-yl]pyrimidin-2-yl}amino)-3-methylpyridine-2-carboxamide] | 534 | – | – | – | – | – | – |
| O=C([C@@H]1CC1(F)F)N1[C@@H]2CC[C@H]1CN(c1ccnc(Nc3cnc(N4CC[C@@H](O)C4)c(F)c3)n1)C2 [Example 21, [(1S)-2,2-difluorocyclopropyl]{(1R,5S)-3-[2-({5-fluoro-6-[(3R)-3-hydroxypyrrolidin-1-yl]pyridin-3-yl}amino)pyrimidin-4-yl]-3,8-diazabicyclo[3.2.1]oct-8-yl}methanone] | 731 | – | – | – | – | – | – |
| O=C([C@@H]1CC1(F)F)N1[C@@H]2CC[C@H]1CN(c1ccnc(Nc3cnc(OCCO)c(Cl)c3)n1)C2 [Example 23, [(1R,5S)-3-(2-{[5-chloro-6-(2-hydroxyethoxy)pyridin-3-yl]amino}pyrimidin-4-yl)-3,8-diazabicyclo[3.2.1]oct-8-yl][(1S)-2,2-difluorocyclopropyl]methanone] | 428 | – | – | – | – | – | – |
| Cn1cc(Nc2nccc(N3C[C@H]4CC[C@@H](C3)N4C(=O)[C@@H]3CC3(F)F)n2)cn1 [Example 7, [(1S)-2,2-difluorocyclopropyl][(1R,5S)-3-{2-[(1-methyl-1H-pyrazol-4-yl)amino]pyrimidin-4-yl}-3,8-diazabicyclo[3.2.1]oct-8-yl]methanone] | 30 | – | – | – | – | – | – |
| CNC(=O)c1ncc(Nc2ncc(F)c(N3C[C@H]4[C@@H](C)[C@@]4(NC(=O)C4CC4)C3)n2)cc1C [Example 100, 5-[(4-{(1S,5R,6R)-1-[(cyclopropylcarbonyl)amino]-6-methyl-3-azabicyclo[3.1.0]hex-3-yl}-5-fluoropyrimidin-2-yl)amino]-N,3-dimethylpyridine-2-carboxamide] | – | > 10000 | 965 | 97 | 4250 | – | – |
| CC(C)NC(=O)N1[C@@H]2CC[C@H]1CN(c1ccnc(Nc3cnn(C)c3)n1)C2 [Example 88, (1R,5S)-3-{2-[(1-methyl-1H-pyrazol-4-yl)amino]pyrimidin-4-yl}-N-(propan-2-yl)-3,8-diazabicyclo[3.2.1]octane-8-carboxamide] | – | > 10000 | 165 | 110 | 894 | – | – |
| CC(CC#N)N1[C@@H]2CC[C@H]1CN(c1ccnc(Nc3cn[nH]c3)n1)C2 (stereo partly drawn) [Example 82, 3-{(1R,5S)-3-[2-(1H-pyrazol-4-ylamino)pyrimidin-4-yl]-3,8-diazabicyclo[3.2.1]oct-8-yl}butanenitrile] | – | > 10000 | 135 | 79 | 473 | – | – |
| CNC(=O)c1cc(Nc2nccc(N3C[C@H]4CC[C@@H](C3)N4C(=O)[C@@H]3CC3(F)F)n2)cc(C)n1 [Example 40, 4-({4-[(1R,5S)-8-{[(1S)-2,2-difluorocyclopropyl]carbonyl}-3,8-diazabicyclo[3.2.1]oct-3-yl]pyrimidin-2-yl}amino)-N,6-dimethylpyridine-2-carboxamide] | – | > 10000 | 369 | 70 | 189 | – | – |
| CNC(=O)c1ncc(Nc2ncc(F)c(N3C[C@@H]4[C@H](C)[C@]4(NC(=O)C4CC4)C3)n2)cc1C [Example 101, 5-[(4-{(1R,5S,6S)-1-[(cyclopropylcarbonyl)amino]-6-methyl-3-azabicyclo[3.1.0]hex-3-yl}-5-fluoropyrimidin-2-yl)amino]-N,3-dimethylpyridine-2-carboxamide] | – | > 10000 | 1880 | 663 | 2910 | – | – |
| CCNC(=O)c1ccc(Nc2ncc(F)c(N3CC4CC(C3)N4C(=O)C(C)(F)F)n2)cc1C [Example 111, 4-({4-[6-(2,2-difluoropropanoyl)-3,6-diazabicyclo[3.1.1]hept-3-yl]-5-fluoropyrimidin-2-yl}amino)-N-ethyl-2-methylbenzamide] | – | 4870 | 1690 | 56 | 2210 | – | – |
| CCCNC(=O)c1cc(Nc2ncc(F)c(N3C[C@H]4CC[C@@H](C3)N4C(=O)C3CC3)n2)n[nH]1 [Example 2, 3-({4-[(1R,5S)-8-(cyclopropylcarbonyl)-3,8-diazabicyclo[3.2.1]oct-3-yl]-5-fluoropyrimidin-2-yl}amino)-N-propyl-1H-pyrazole-5-carboxamide] | – | > 10000 | 1550 | 432 | 4720 | – | – |
| Cn1cc(Nc2nccc(N3C[C@H]4CC[C@@H](C3)N4c3cc(C#N)ccn3)n2)cn1 [Example 92, 2-[(1R,5S)-3-{2-[(1-methyl-1H-pyrazol-4-yl)amino]pyrimidin-4-yl}-3,8-diazabicyclo[3.2.1]oct-8-yl]pyridine-4-carbonitrile] | – | 6560 | 52 | 62 | 264 | – | – |
| CNC(=O)c1ncc(Nc2nccc(N3C[C@H]4CC[C@@H](C3)N4C(=O)[C@H]3CC3(F)F)n2)cc1F [Example 28, 5-({4-[(1R,5S)-8-{[(1R)-2,2-difluorocyclopropyl]carbonyl}-3,8-diazabicyclo[3.2.1]oct-3-yl]pyrimidin-2-yl}amino)-3-fluoro-N-methylpyridine-2-carboxamide] | – | > 10000 | – | 736 | 8150 | 1370 | – |
| O=C(N[C@@]12C[C@@H]1CN(c1nc(Nc3cnn(CCO)c3)ncc1Cl)C2)C1CC1 [Example 107, N-[(1S,5R)-3-(5-chloro-2-{[1-(2-hydroxyethyl)-1H-pyrazol-4-yl]amino}pyrimidin-4-yl)-3-azabicyclo[3.1.0]hex-1-yl]cyclopropanecarboxamide] | – | 1880 | 19 | 21 | 177 | – | – |
| CC(CC#N)N1[C@@H]2CC[C@H]1CN(c1ccnc(Nc3cnn(C)c3)n1)C2 (stereo partly drawn) [Example 81] | – | > 10000 | 405 | 199 | 603 | – | – |
| Cn1cc(Nc2nccc(N3C[C@H]4CC[C@@H](C3)N4C[C@H]3C[C@@H]3C#N)n2)cn1 [Example 69, (1S,2S)-2-{[(1R,5S)-3-{2-[(1-methyl-1H-pyrazol-4-yl)amino]pyrimidin-4-yl}-3,8-diazabicyclo[3.2.1]oct-8-yl]methyl}cyclopropanecarbonitrile] | – | – | 1100 | 811 | 5700 | – | > 10000 |
| Cn1cc(Nc2nccc(N3C[C@H]4CC[C@@H](C3)N4C(=O)[C@@H]3C[C@@H]3C#N)n2)cn1 [Example 37, (1S,2R)-2-{[(1R,5S)-3-{2-[(1-methyl-1H-pyrazol-4-yl)amino]pyrimidin-4-yl}-3,8-diazabicyclo[3.2.1]oct-8-yl]carbonyl}cyclopropanecarbonitrile] | – | 8310 | 467 | 250 | 1400 | – | – |
| CNC(=O)c1cc(Nc2nccc(N3C[C@H]4CC[C@@H](C3)N4C(=O)[C@@H]3CC3(F)F)n2)cc(CO)n1 [Example 41, 4-({4-[(1R,5S)-8-{[(1S)-2,2-difluorocyclopropyl]carbonyl}-3,8-diazabicyclo[3.2.1]oct-3-yl]pyrimidin-2-yl}amino)-6-(hydroxymethyl)-N-methylpyridine-2-carboxamide] | – | > 10000 | 201 | 84 | 279 | – | – |
| Cn1cc(Nc2nccc(N3C[C@H]4CC[C@@H](C3)N4S(C)(=O)=O)n2)cn1 [Example 77, N-(1-methyl-1H-pyrazol-4-yl)-4-[(1R,5S)-8-(methylsulfonyl)-3,8-diazabicyclo[3.2.1]oct-3-yl]pyrimidin-2-amine] | – | > 10000 | 380 | 256 | 653 | – | – |
| C[C@@H]1[C@@H]2CN(c3nc(Nc4cnn(C5COC5)c4)ncc3F)C[C@]12NC(=O)[C@@H]1CC1(F)F [Example 99, (1S)-2,2-difluoro-N-[(1S,5R,6R)-3-(5-fluoro-2-{[1-(oxetan-3-yl)-1H-pyrazol-4-yl]amino}pyrimidin-4-yl)-6-methyl-3-azabicyclo[3.1.0]hex-1-yl]cyclopropanecarboxamide] | – | 4940 | 65 | 26 | 391 | – | – |
| Cn1cc(Nc2nccc(N3C[C@H]4CC[C@@H](C3)N4C(=O)[C@H]3C[C@H]3C#N)n2)cn1 [Example 38, (1R,2S)-2-{[(1R,5S)-3-{2-[(1-methyl-1H-pyrazol-4-yl)amino]pyrimidin-4-yl}-3,8-diazabicyclo[3.2.1]oct-8-yl]carbonyl}cyclopropanecarbonitrile] | – | > 10000 | 707 | 427 | 2330 | – | – |
| O=C(N[C@]12C[C@H]1CN(c1nc(Nc3cnn(CCO)c3)ncc1Cl)C2)C1CC1 [Example 108, N-[(1R,5S)-3-(5-chloro-2-{[1-(2-hydroxyethyl)-1H-pyrazol-4-yl]amino}pyrimidin-4-yl)-3-azabicyclo[3.1.0]hex-1-yl]cyclopropanecarboxamide] | – | 3960 | 323 | 675 | 1490 | – | – |
| Cn1cc(Nc2nccc(N3C[C@H]4CC[C@@H](C3)N4c3ncc(C#N)o3)n2)cn1 [Example 78, 2-[(1R,5S)-3-{2-[(1-methyl-1H-pyrazol-4-yl)amino]pyrimidin-4-yl}-3,8-diazabicyclo[3.2.1]oct-8-yl]-1,3-oxazole-5-carbonitrile] | – | > 10000 | 68 | 63 | 461 | – | – |
| CNC(=O)c1ncc(Nc2nccc(N3C[C@H]4CC[C@@H](C3)N4C[C@@H]3CC3(F)F)n2)cc1C (single isomer, unassigned) [Example 67] | – | > 10000 | 418 | 108 | 973 | – | – |
